Columns and labels:
[1] = system: Influenza strain A549 A/WSN/33 (H1N1); experiment: microbe, parasite or virus in culture; type: cell-based; details: Influenza A virus, A549, 20 h, A549 cells, influenza A/WSN/33 (H1N1), 20 hours incubation; read-out: A549_A(H1N1) EC50
in vitro = details: human, CC50, uninfected A549 cells, CellTiter-Glo

Structure (SMILES): C[C@H]1/C=C/COc2c(F)cccc2[C@H](c2ccccc2)N2CN1C(=O)c1c(O)c(=O)ccn12 (single isomer, unassigned) [Compound 141BB, (9*S,18*S,E)-4-fluoro-12-hydroxy-9-methyl-18-phenyl-6,9-dihydro-18H-10,17-methanobenzo[b]pyrido[1,2-f][1]oxa[5,6,9]triazacyclotridecine-11,13-dione]
- EC50 [1]: 627 nM
- CC50 (in vitro): > 20000 nM

Structure (SMILES): O=C1c2c(O)c(=O)ccn2N2CN1CC[C@@H]1C[C@@H]1COc1cccc3c1[C@@H]2c1ccccc1SC3 (single isomer, unassigned) [Compound 144AA, (1*R,13*S,15*S)-7-hydroxy-17-oxa-24-thia-2,3,10-triazaheptacyclo[16.12.1.12,10.03,8.013,15.022,31.025,30]dotriaconta-4,18,20,22(31),25(30),26,28-heptaene-6,9-dione]
- EC50 [1]: > 100 nM
- CC50 (in vitro): > 200 nM

Structure (SMILES): O=C1c2c(O)c(=O)ccn2N2CN1CC[C@H]1C[C@H]1COc1cccc3c1[C@@H]2c1ccccc1SC3 (single isomer, unassigned) [Compound 144AB, (1*R,13*R,15*R)-7-hydroxy-17-oxa-24-thia-2,3,10-triazaheptacyclo[16.12.1.12,10.03,8.013,15.022,31.025,30]dotriaconta-4,18,20,22(31),25(30),26,28-heptaene-6,9-dione]
- EC50 [1]: > 100 nM
- CC50 (in vitro): > 200 nM

Structure (SMILES): O=C1c2c(O)c(=O)ccn2N2CN1CC[C@@H]1C[C@@H]1COc1cccc3c1[C@H]2c1ccccc1SC3 (single isomer, unassigned) [Compound 144BA, (1*S,13*S,15*S)-7-hydroxy-17-oxa-24-thia-2,3,10-triazaheptacyclo[16.12.1.12,10.03,8.013,15.022,31.025,30]dotriaconta-4,18,20,22(31),25(30),26,28-heptaene-6,9-dione]
- EC50 [1]: 72.9 nM
- CC50 (in vitro): > 200 nM

Structure (SMILES): O=C1c2c(O)c(=O)ccn2N2CN1CC[C@H]1C[C@H]1COc1cccc3c1C2c1ccccc1SC3 (single isomer, unassigned) [Compound 144BB, (1*S,13*R,15*R)-7-hydroxy-17-oxa-24-thia-2,3,10-triazaheptacyclo[16.12.1.12,10.03,8.013,15.022,31.025,30]dotriaconta-4,18,20,22(31),25(30),26,28-heptaene-6,9-dione]
- EC50 [1]: 51.3 nM
- CC50 (in vitro): > 4000 nM

Structure (SMILES): O=C1c2c(O)c(=O)ccn2N2CN1C1(/C=C/COc3c(F)cccc3[C@H]2c2ccccc2)CCC1 (single isomer, unassigned) [Compound 145A, (18′*R,E)-4′-fluoro-12′-hydroxy-18′-phenyl-6′H,18′H-spiro[cyclobutane-1,9′-[10,17]methanobenzo[b]pyrido[1,2-f][1]oxa[5,6,9]triazacyclotridecine]-11′,13′-dione]
- EC50 [1]: 3.1 nM
- CC50 (in vitro): > 100 nM

Structure (SMILES): O=C1c2c(O)c(=O)ccn2N2CN1C1(/C=C/COc3c(F)cccc3[C@@H]2c2ccccc2)CCC1 (single isomer, unassigned) [Compound 145B, (18′*S,E)-4′-fluoro-12′-hydroxy-18′-phenyl-6′H,18′H-spiro[cyclobutane-1,9′-[10,17]methanobenzo[b]pyrido[1,2-f][1]oxa[5,6,9]triazacyclotridecine]-11′,13′-dionene]
- EC50 [1]: 310 nM
- CC50 (in vitro): > 10000 nM

Structure (SMILES): O=C1c2c(O)c(=O)ccn2N2CN1C1(/C=C/COc3cccc4c3[C@@H]2c2ccccc2SC4)CCC1 (single isomer, unassigned) [Compound 147A, (17a′*R,*E)-12′-hydroxy-2′,17a′-dihydro-6′H-spiro[cyclobutane-1,9′-[3,4](epiprop[1]en[1]yl[3]ylidene)[10,17]methanobenzo[6,7]thiepino[4,5-c]pyrido[1,2-f][1]oxa[5,6,9]triazacyclotridecine]-11′,13′-dione]
- EC50 [1]: > 5000 nM
- CC50 (in vitro): > 10000 nM

Structure (SMILES): O=C1c2c(O)c(=O)ccn2N2CN1C1(/C=C/COc3cccc4c3[C@H]2c2ccccc2SC4)CCC1 (single isomer, unassigned) [Compound 147B, (17a′*S,*E)-12′-hydroxy-2′,17a′-dihydro-6′H-spiro[cyclobutane-1,9′-[3,4](epiprop[1]en[1]yl[3]ylidene)[10,17]methanobenzo[6,7]thiepino[4,5-c]pyrido[1,2-f][1]oxa[5,6,9]triazacyclotridecine]-11′,13′-dione]
- EC50 [1]: 0.33 nM
- CC50 (in vitro): > 100 nM

Structure (SMILES): C[C@@H]1/C=C/COc2c(ccc(F)c2F)[C@@H](c2ccccc2)N2CN1C(=O)c1c(O)c(=O)ccn12 (single isomer, unassigned) [Compound 148AA, (9*R,18*R,*E)-3,4-difluoro-12-hydroxy-9-methyl-18-phenyl-6,9-dihydro-18H-10,17-methanobenzo[b]pyrido[1,2-f][1]oxa[5,6,9]triazacyclotridecine-11,13-dione]
- EC50 [1]: 1.6 nM
- CC50 (in vitro): > 50 nM

Structure (SMILES): C[C@@H]1/C=C/COc2c(ccc(F)c2F)[C@H](c2ccccc2)N2CN1C(=O)c1c(O)c(=O)ccn12 (single isomer, unassigned) [Compound 148BA, (9*R,18*S,*E)-3,4-difluoro-12-hydroxy-9-methyl-18-phenyl-6,9-dihydro-18H-10,17-methanobenzo[b]pyrido[1,2-f][1]oxa[5,6,9]triazacyclotridecine-11,13-dione]
- EC50 [1]: 2600 nM
- CC50 (in vitro): > 10000 nM

Structure (SMILES): COC[C@H]1/C=C/COc2ccccc2[C@@H](c2ccccc2)N2CN1C(=O)c1c(O)c(=O)ccn12 (single isomer, unassigned) [Compound 150A, (9*R,18*R,*E)-12-hydroxy-9-(methoxymethyl)-18-phenyl-6,9-dihydro-18H-10,17-methanobenzo[b]pyrido[1,2-f][1]oxa[5,6,9]triazacyclotridecine-11,13-dione]
- EC50 [1]: 9 nM
- CC50 (in vitro): > 100 nM

Structure (SMILES): COC[C@@H]1/C=C/COc2ccccc2[C@H](c2ccccc2)N2CN1C(=O)c1c(O)c(=O)ccn12 (single isomer, unassigned) [Compound 150B, (9*S,18*S,*E)-12-hydroxy-9-(methoxymethyl)-18-phenyl-6,9-dihydro-18H-10,17-methanobenzo[b]pyrido[1,2-f][1]oxa[5,6,9]triazacyclotridecine-11,13-dione]
- EC50 [1]: 3260 nM
- CC50 (in vitro): > 10000 nM

Structure (SMILES): O=C1c2c(O)c(=O)ccn2N2CN1CC/C=C\COc1ccc(F)c3c1[C@@H]2c1cccc(F)c1SC3 (single isomer, unassigned) [Compound 151A, (1*R,13*Z)-20,25-difluoro-7-hydroxy-16-oxa-23-thia-2,3,10-triazahexacyclo[15.12.1.12,10.03,8.021,30.024,29]hentriaconta-4,7,13,17,19,21(30),24(29),25,27-nonaene-6,9-dione]
- EC50 [1]: > 50 nM
- CC50 (in vitro): > 100 nM

Structure (SMILES): O=C1c2c(O)c(=O)ccn2N2CN1CC/C=C\COc1ccc(F)c3c1[C@H]2c1cccc(F)c1SC3 (single isomer, unassigned) [Compound 151B, (1*S,13*Z)-20,25-difluoro-7-hydroxy-16-oxa-23-thia-2,3,10-triazahexacyclo[15.12.1.12,10.03,8.021,30.024,29]hentriaconta-4,7,13,17,19,21(30),24(29),25,27-nonaene-6,9-dione]
- EC50 [1]: 4.4 nM
- CC50 (in vitro): > 100 nM

Structure (SMILES): O=C1c2c(O)c(=O)ccn2N2CN1[C@@H](C1CC1)/C=C/COc1c(ccc(F)c1F)[C@@H]2c1ccccc1 (single isomer, unassigned) [Compound 152AA, (9*S,18*S,*E)-9-cyclopropyl-3,4-difluoro-12-hydroxy-18-phenyl-6,9-dihydro-18H-10,17-methanobenzo[b]pyrido[1,2-f][1]oxa[5,6,9]triazacyclotridecine-11,13-dione]
- EC50 [1]: > 50 nM
- CC50 (in vitro): > 100 nM

Structure (SMILES): O=C1c2c(O)c(=O)ccn2N2CN1[C@H](C1CC1)/C=C/COc1c(ccc(F)c1F)[C@@H]2c1ccccc1 (single isomer, unassigned) [Compound 152AB, (9*R,18*S,*E)-9-cyclopropyl-3,4-difluoro-12-hydroxy-18-phenyl-6,9-dihydro-18H-10,17-methanobenzo[b]pyrido[1,2-f][1]oxa[5,6,9]triazacyclotridecine-11,13-dione]
- EC50 [1]: > 50 nM
- CC50 (in vitro): > 100 nM

Structure (SMILES): O=C1c2c(O)c(=O)ccn2N2CN1[C@@H](C1CC1)/C=C/COc1c(ccc(F)c1F)[C@H]2c1ccccc1 (single isomer, unassigned) [Compound 152BA, (9*S,18*R,*E)-9-cyclopropyl-3,4-difluoro-12-hydroxy-18-phenyl-6,9-dihydro-18H-10,17-methanobenzo[b]pyrido[1,2-f][1]oxa[5,6,9]triazacyclotridecine-11,13-dione]
- EC50 [1]: 1.3 nM
- CC50 (in vitro): > 200 nM

Structure (SMILES): O=C1c2c(O)c(=O)ccn2N2CN1[C@H](C1CC1)/C=C/COc1c(ccc(F)c1F)[C@H]2c1ccccc1 (single isomer, unassigned) [Compound 152BB, (9*R,18*R,*E)-9-cyclopropyl-3,4-difluoro-12-hydroxy-18-phenyl-6,9-dihydro-18H-10,17-methanobenzo[b]pyrido[1,2-f][1]oxa[5,6,9]triazacyclotridecine-11,13-dione]
- EC50 [1]: 1.8 nM
- CC50 (in vitro): > 200 nM

Structure (SMILES): COC[C@@H]1/C=C/COc2c(ccc(F)c2F)[C@H](c2ccccc2)N2CN1C(=O)c1c(O)c(=O)ccn12 (single isomer, unassigned) [Compound 153AA, (9*S,18*S,*E)-3,4-difluoro-12-hydroxy-9-(methoxymethyl)-18-phenyl-6,9-dihydro-18H-10,17-methanobenzo[b]pyrido[1,2-f][1]oxa[5,6,9]triazacyclotridecine-11,13-dione]
- EC50 [1]: > 50 nM
- CC50 (in vitro): > 100 nM

Structure (SMILES): COC[C@H]1/C=C/COc2c(ccc(F)c2F)[C@H](c2ccccc2)N2CN1C(=O)c1c(O)c(=O)ccn12 (single isomer, unassigned) [Compound 153AB, (9*R,18*S,*E)-3,4-difluoro-12-hydroxy-9-(methoxymethyl)-18-phenyl-6,9-dihydro-18H-10,17-methanobenzo[b]pyrido[1,2-f][1]oxa[5,6,9]triazacyclotridecine-11,13-dione]
- EC50 [1]: > 50 nM
- CC50 (in vitro): > 100 nM

Reference: US11312727B1, “Macrocyclic flu endonuclease inhibitors” (Janssen BioPharma, Inc., priority 2018, dated 2022)
